Measured values reported in ChEMBL document CHEMBL4049435, “Development of a Series of Kynurenine 3-Monooxygenase Inhibitors Leading to a Clinical Candidate for the Treatment of Acute Pancreatitis” (J Med Chem, 2017).

Columns and labels:
[1] = Solubility of the compound in saline measured after 24 hrs; type: physicochemical
[2] = Protein binding in human plasma; type: ADME, cell-free; details: read-out: PPB (converted)
[3] = Lipophilicity, log D of the compound at pH 7.4 by RP-HPLC analysis; type: physicochemical; details: buffer
[4] = Clearance in Han-Wistar rat blood at 1 mg/kg, iv by LC-MS/MS analysis; type: ADME, organism-based; details: whole blood
[5] = Protein binding in Han-Wistar rat plasma at 1 mg/kg, iv by LC-MS/MS analysis; type: ADME, organism-based; details: read-out: PPB (converted)
[6] = Stability of the compound in presence of light measured after 12 hrs; type: physicochemical; details: read-out: Stability
[7] = Half life in Han-Wistar rat at 1 mg/kg, iv by LC-MS/MS analysis; type: ADME, organism-based; details: in vivo
[8] = Half life of the compound at pH 6 under oxidative condition; type: physicochemical
[9] = Volume of distribution at steady state in Han-Wistar rat at 1 mg/kg, iv by LC-MS/MS analysis; type: ADME, organism-based; details: in vivo, read-out: Vdss
[10] = Permeability of the compound by PAMPA; type: physicochemical; details: read-out: permeability
serum albumin = serum albumin (Homo sapiens, UniProt P02768); experiment: Binding affinity to human serum albumin by HPLC analysis; type: ADME; details: read-out: PB (converted)
serum albumin, sequence (P02768 whole entry): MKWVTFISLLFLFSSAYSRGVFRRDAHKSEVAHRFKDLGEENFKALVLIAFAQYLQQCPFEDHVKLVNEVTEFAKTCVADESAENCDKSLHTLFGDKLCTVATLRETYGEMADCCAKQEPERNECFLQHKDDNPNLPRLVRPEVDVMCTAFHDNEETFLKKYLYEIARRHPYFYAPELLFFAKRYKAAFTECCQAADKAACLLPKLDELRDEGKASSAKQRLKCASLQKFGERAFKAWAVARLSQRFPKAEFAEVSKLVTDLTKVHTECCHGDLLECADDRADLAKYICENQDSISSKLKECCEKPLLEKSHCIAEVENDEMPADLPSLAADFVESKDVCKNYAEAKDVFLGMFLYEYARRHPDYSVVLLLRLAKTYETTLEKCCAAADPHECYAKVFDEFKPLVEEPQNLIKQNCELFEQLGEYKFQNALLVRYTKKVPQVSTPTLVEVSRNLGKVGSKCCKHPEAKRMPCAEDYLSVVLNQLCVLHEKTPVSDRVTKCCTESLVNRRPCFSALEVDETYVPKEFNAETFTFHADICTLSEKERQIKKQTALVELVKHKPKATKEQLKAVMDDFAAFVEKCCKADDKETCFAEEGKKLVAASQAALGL

[11] = target: T1, Kynurenine 3-monooxygenase (Homo sapiens, UniProt O15229); experiment: Inhibition of full length human GST-tagged KMO expressed in baculovirus infected Sf9 insect cell membranes using kynurenine as substrate measured after 1 hr by RapidFire high-throughput mass spectrometric analysis
T1 sequence (O15229 whole entry): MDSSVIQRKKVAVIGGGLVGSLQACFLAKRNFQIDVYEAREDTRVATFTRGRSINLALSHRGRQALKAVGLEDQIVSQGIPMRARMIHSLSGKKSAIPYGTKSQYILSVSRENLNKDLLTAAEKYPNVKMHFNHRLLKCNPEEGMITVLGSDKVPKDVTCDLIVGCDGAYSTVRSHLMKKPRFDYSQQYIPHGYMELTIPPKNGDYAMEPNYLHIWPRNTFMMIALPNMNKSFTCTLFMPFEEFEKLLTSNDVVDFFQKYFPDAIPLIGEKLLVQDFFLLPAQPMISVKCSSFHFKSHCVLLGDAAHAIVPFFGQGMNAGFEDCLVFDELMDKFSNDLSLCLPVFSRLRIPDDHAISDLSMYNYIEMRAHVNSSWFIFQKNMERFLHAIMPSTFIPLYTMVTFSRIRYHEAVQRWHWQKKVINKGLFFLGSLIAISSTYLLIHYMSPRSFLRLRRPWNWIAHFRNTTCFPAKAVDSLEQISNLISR

[12] = target: T1, Kynurenine 3-monooxygenase

Structure (SMILES)	fraction unbound [2]	logD [3]	Papp [10] [×10⁻⁶ cm/s]	fraction unbound (serum albumin)	other results
C[C@@H](Oc1cc2onc(CCC(=O)O)c2cc1Cl)c1ccccn1.NC(CO)(CO)CO	0.022	1.99			solubility at 24 h [1]: > 7440 µg/mL
C[C@@H](Oc1cc2oc(=O)n(CCC(=O)O)c2cc1Cl)c1ccccn1					clearance [4]: 16.8 mL/min/kg; fraction unbound [5]: 0.215; remaining at 12 h [6]: 99.2%; half-life [7]: 5.6 h; half-life [8]: > 1000 h; Vd [9]: 2.96 L/kg
NC(CO)(CO)CO.O=C(O)CCn1c(=O)oc2cc(Cl)c(Cl)cc21					solubility at 24 h [1]: 270 µg/mL
C[C@@H](Oc1cc2oc(=O)n(CCC(=O)O)c2cc1Cl)c1ncco1.NC(CO)(CO)CO		1.11	< 0.3	0.227	
Cc1cccc([C@@H](C)Oc2cc3oc(=O)n(CCC(=O)O)c3cc2Cl)n1.NC(CO)(CO)CO		2.12	2.1	0.068	
O=C(O)CCn1c(=O)oc2cc(OC3CC3)c(Cl)cc21					clearance [4]: 9.4 mL/min/kg; fraction unbound [5]: 0.097; remaining at 12 h [6]: 100%; half-life [7]: 0.39 h; half-life [8]: > 1000 h; Vd [9]: 0.29 L/kg
C[C@@H](Oc1cc2onc(CCC(=O)O)c2cc1Cl)c1ccc(Cl)cn1.NC(CO)(CO)CO	0.002	2.91		0.01	solubility at 24 h [1]: > 620 µg/mL
C[C@@H](Oc1cc2sc(=O)n(CCC(=O)O)c2cc1Cl)c1ccccn1		1.81			
NC(CO)(CO)CO.O=C(O)CCn1c(=O)oc2cc(OCc3ccccn3)c(Cl)cc21	0.074	1.32	1.1	0.126	IC50 [11]: 3.16 nM; IC50 [12]: 5010 nM
O=C(O)CCn1c(=O)oc2cc(Cl)c(Cl)cc21	0.018	1.61	2.4	0.037	clearance [4]: 4.3 mL/min/kg; fraction unbound [5]: 0.083; remaining at 12 h [6]: 41%; half-life [7]: 4.3 h; half-life [8]: 334 h; Vd [9]: 0.28 L/kg
Cc1cc2oc(=O)n(CCC(=O)O)c2cc1Cl	0.024				clearance [4]: 4.7 mL/min/kg; fraction unbound [5]: 0.045; remaining at 12 h [6]: 100%; half-life [7]: 3.7 h; half-life [8]: > 1000 h; Vd [9]: 0.52 L/kg
COc1cc2oc(=O)n(CCC(=O)O)c2cc1Cl			< 0.3	0.11	
Cc1ccc([C@@H](C)Oc2cc3onc(CCC(=O)O)c3cc2Cl)nc1					clearance [4]: 1.1 mL/min/kg; fraction unbound [5]: 0.009; remaining at 12 h [6]: 96.5%; half-life [7]: 3.6 h; half-life [8]: > 1000 h; Vd [9]: 0.31 L/kg
Cc1ccc([C@@H](C)Oc2cc3onc(CCC(=O)O)c3cc2Cl)nn1.NC(CO)(CO)CO					solubility at 24 h [1]: 230 µg/mL
C[C@@H](Oc1cc2onc(CCC(=O)O)c2cc1Cl)c1ccc(Cl)cn1					clearance [4]: 0.35 mL/min/kg; fraction unbound [5]: 0.003; remaining at 12 h [6]: 99.5%; half-life [7]: 8.7 h; half-life [8]: > 1000 h; Vd [9]: 0.26 L/kg
Cc1ccc([C@@H](C)Oc2cc3oc(=O)n(CCC(=O)O)c3cc2Cl)nc1.NC(CO)(CO)CO	0.022	2.02	2.2		
C[C@@H](Oc1cc2cnn(CCC(=O)O)c2cc1Cl)c1ccccn1	0.099	1.7			
C[C@H](Oc1cc2oc(=O)n(CCC(=O)O)c2cc1Cl)c1ccccn1.NC(CO)(CO)CO		1.79	< 0.3	0.084	
Cc1ccc([C@@H](C)Oc2cc3onc(CCC(=O)O)c3cc2Cl)nc1.NC(CO)(CO)CO	0.003	2.42		0.016	solubility at 24 h [1]: > 860 µg/mL
Cc1cc2oc(=O)n(CCC(=O)O)c2cc1Cl.NC(CO)(CO)CO		1.26	0.3 to 1	0.05	solubility at 24 h [1]: > 127000 µg/mL; IC50 [12]: 631 nM

Structure (SMILES)	fraction unbound [2]	logD [3]	Papp [10] [×10⁻⁶ cm/s]	fraction unbound (serum albumin)	other results
O=C(O)CCn1c(=O)oc2cc(OCc3ccccc3)c(Cl)cc21		2.71		0.017	
NC(CO)(CO)CO.O=C(O)CCn1c(=O)oc2cc(OCCN3CCCC3)c(Cl)cc21		-0.26	< 0.3	0.849	
O=C(O)CCn1c(=O)oc2cc(OCc3ccccn3)c(Cl)cc21					Ki [11]: 1 nM
C[C@@H](Oc1cc2onc(CCC(=O)O)c2cc1Cl)c1ccc(F)cn1		2.47		0.017	
C[C@@H](Oc1cc2c(cc1Cl)N(CCC(=O)O)C(=O)CO2)c1ccccn1	0.075	1.56			
Cc1ccnc([C@@H](C)Oc2cc3oc(=O)n(CCC(=O)O)c3cc2Cl)c1.NC(CO)(CO)CO		2.15	< 0.3	0.056	
CC(C)Cc1cc2oc(=O)n(CCC(=O)O)c2cc1Cl.NC(CO)(CO)CO		3.03	< 1	0.008	
NC(CO)(CO)CO.O=C(O)CCn1c(=O)oc2cc(OCC3CCC3)c(Cl)cc21	0.019	2.9	1.2	0.019	
CCOc1cc2oc(=O)n(CCC(=O)O)c2cc1Cl					clearance [4]: 16 mL/min/kg; fraction unbound [5]: 0.184; remaining at 12 h [6]: 99.5%; half-life [7]: 0.43 h; half-life [8]: > 1000 h; Vd [9]: 0.36 L/kg
C[C@@H](Oc1cc2oc(=O)n(CCC(=O)O)c2cc1Cl)c1ccc(F)cn1.NC(CO)(CO)CO		1.98	3.1	0.06	
C[C@@H](Oc1cc2oc(=O)n(CCC(=O)O)c2cc1Cl)c1ncccn1.NC(CO)(CO)CO		0.83	< 0.3	0.409	
Cc1ccc([C@@H](C)Oc2cc3onc(CCC(=O)O)c3cc2Cl)nn1	0.071	2.97		0.108	clearance [4]: 12 mL/min/kg; fraction unbound [5]: 0.067; remaining at 12 h [6]: 85.2%; half-life [7]: 1.5 h; IC50 [12]: 3.16 nM; half-life [8]: > 1000 h; Vd [9]: 1.1 L/kg
C[C@@H](Oc1cc2oc(=O)n(CCC(=O)O)c2cc1Cl)c1ccccn1.NC(CO)(CO)CO	0.119	1.71	0.3 to 2	0.067	solubility at 24 h [1]: > 9500 µg/mL
O=C(O)CCn1c(=O)oc2cc(OCC3CC3)c(Cl)cc21					clearance [4]: 4.1 mL/min/kg; fraction unbound [5]: 0.098; remaining at 12 h [6]: 105%; half-life [7]: 0.68 h; half-life [8]: > 1000 h; Vd [9]: 0.26 L/kg
CCc1cc2oc(=O)n(CCC(=O)O)c2cc1Cl.NC(CO)(CO)CO	0.013	1.94	1 to 2.2	0.026	
CC(Oc1cc2oc(=O)n(CCC(=O)O)c2cc1Cl)c1ccccn1.NC(CO)(CO)CO (configuration not stated)	0.183	1.86	< 0.3	0.129	
C[C@@H](Oc1cc2ccn(CCC(=O)O)c2cc1Cl)c1ccccn1		2.17			
CCOc1cc2oc(=O)n(CCC(=O)O)c2cc1Cl.NC(CO)(CO)CO	0.042	1.49	< 1	0.113	solubility at 24 h [1]: > 1880 µg/mL
C[C@@H](Oc1cc2oc(=O)n(CCC(=O)O)c2cc1Cl)c1ccc(Cl)cn1.NC(CO)(CO)CO	0.01	2.65	6	0.021	
COCCOc1cc2oc(=O)n(CCC(=O)O)c2cc1Cl.NC(CO)(CO)CO	0.293	0.88	< 0.3	0.558	
